The test system of one test is HCT116 MTAP null cells. The experiment in a line: HCT116 MTAP null cell line proliferation / cell viability (CellTiter-Glo, 6 days). As to conditions: 144 h; HCT116 MTAP null cells, 6 days treatment, CellTiter-Glo cell viability; read-out: HCT-116 MTAP null IC50. It counts as cell-based. In a few lines:
(§1)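 Viability read by CellTiter-Glo luminescence after 6 days of compound treatment of HCT116 WT and MTAP-null cells (RPMI 1640, 10% FBS). Dose series were 1:3 steps from 1 or 10 μM (8–9 points), or 1:2 steps from 10 or 50 μM (22 points). IC50 from 4-parameter logistic or fixed-slope sigmoidal fit.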

A further test deals with HCT116 WT cells. The test can be described thus: HCT116 WT (parent) cell line proliferation / cell viability (CellTiter-Glo, 6 days). It counts as cell-based. As to conditions: Homo sapiens, HCT-116, 144 h, 6 days treatment. An outline of the steps:
as §1

Structures are written as SMILES.

In the case of `CN(C(=O)c1cnc2nc(N)c3c(c2c1)COC3)[C@@H]1COCc2cc(C(F)(F)F)ccc21` [Example 493, 4-amino-N-methyl-N-((4S)-7-(trifluoromethyl)-3,4-dihydro-1H-2-benzopyran-4-yl)-1,3-dihydrofuro[3,4-c][1,8]naphthyridine-8-carboxamide], the IC50 is 92 nM in the test with HCT116 MTAP null cells and 2050 nM in the test on HCT116 WT cells.

Turning to `CN(C(=O)c1cc2c3c(c(N)nc2cc1F)COC3)[C@@H]1COCc2nc(C(F)(F)F)ccc21` [Example 494, 4-amino-7-fluoro-N-methyl-N-((5S)-2-(trifluoromethyl)-5,8-dihydro-6H-pyrano[3,4-b]pyridin-5-yl)-1,3-dihydrofuro[3,4-c]quinoline-8-carboxamide], the 50% inhibitory concentration (IC50) is 23 nM in the test on HCT116 MTAP null cells and 671 nM with HCT116 WT cells.

For the molecule `C[C@H]1OCc2c1c(N)nc1cc(F)c(C(=O)N(C)[C@@H]3COCc4nc(C(F)(F)F)ccc43)cc21` [Example 495, (3R)-4-amino-7-fluoro-N,3-dimethyl-N-((5S)-2-(trifluoromethyl)-5,8-dihydro-6H-pyrano[3,4-b]pyridin-5-yl)-1,3-dihydrofuro[3,4-c]quinoline-8-carboxamide], the IC50 came to 15 nM in the test on HCT116 MTAP null cells and 386 nM in the test with HCT116 WT cells.

Regarding `CN(C(=O)c1cc2c3c(c(N)nc2cc1Cl)COC3)[C@@H]1COCc2cc(C#N)ccc21` [Example 496, 4-amino-7-chloro-N-((4S)-7-cyano-3,4-dihydro-1H-2-benzopyran-4-yl)-N-methyl-1,3-dihydrofuro[3,4-c]quinoline-8-carboxamide], the IC50 in the test with HCT116 MTAP null cells amounted to 5 nM; in the test on HCT116 WT cells, 205 nM.

Regarding `Cc1noc2c1c(N)nc1ccc(C(=O)N(C)[C@@H]3COCc4cc(C#N)ccc43)cc12` [Example 497, 4-amino-N-((4S)-7-cyano-3,4-dihydro-1H-2-benzopyran-4-yl)-N,3-dimethyl[1,2]oxazolo[4,5-c]quinoline-8-carboxamide], the results for the IC50 with HCT116 MTAP null cells and with HCT116 WT cells were 350 nM and 19700 nM, respectively.

`Cc1noc2c1c(N)nc1ccc(C(=O)N(C)[C@@H]3COCc4cc(C(F)(F)F)ccc43)cc12` [Example 498, 4-amino-N,3-dimethyl-N-((4S)-7-(trifluoromethyl)-3,4-dihydro-1H-2-benzopyran-4-yl)[1,2]oxazolo[4,5-c]quinoline-8-carboxamide]: the half-inhibitory concentration (IC50) worked out at 185 nM in the test on HCT116 MTAP null cells and 9110 nM with HCT116 WT cells.

Regarding `CN(C(=O)c1ccc2nc(N)c3cnn(C)c3c2c1)[C@@H]1COCc2cc(C(F)(F)F)ccc21` [Example 499, 4-amino-N,1-dimethyl-N-((4S)-7-(trifluoromethyl)-3,4-dihydro-1H-2-benzopyran-4-yl)-1H-pyrazolo[4,3-c]quinoline-8-carboxamide], the results for the IC50 in the test with HCT116 MTAP null cells and in the test with HCT116 WT cells were 4 nM and 152 nM, respectively.

In the case of `CN(C(=O)c1ccc2nc(N)c3cnn(C)c3c2c1)[C@@H]1COCc2cc(C(F)(F)F)ncc21` [Example 500, 4-amino-N,1-dimethyl-N-((4S)-7-(trifluoromethyl)-3,4-dihydro-1H-pyrano[4,3-c]pyridin-4-yl)-1H-pyrazolo[4,3-c]quinoline-8-carboxamide], the IC50 was determined as 10 nM with HCT116 MTAP null cells and 501 nM with HCT116 WT cells.

Take `CCN(C(=O)c1ccc2nc(N)c3cnn(C)c3c2c1)[C@@H]1COCc2nc(C(F)(F)F)ccc21` [Example 501, 4-amino-N-ethyl-1-methyl-N-((5S)-2-(trifluoromethyl)-5,8-dihydro-6H-pyrano[3,4-b]pyridin-5-yl)-1H-pyrazolo[4,3-c]quinoline-8-carboxamide]: the concentration for half-maximal inhibition (IC50) worked out at 4 nM with HCT116 MTAP null cells and 141 nM in the test with HCT116 WT cells.

Turning to `CCN(C(=O)c1ccc2nc(N)c3cnn(C)c3c2c1)[C@H]1COCc2nc(C(F)(F)F)ccc21` [Example 502, 4-amino-N-ethyl-1-methyl-N-((5R)-2-(trifluoromethyl)-5,8-dihydro-6H-pyrano[3,4-b]pyridin-5-yl)-1H-pyrazolo[4,3-c]quinoline-8-carboxamide], the results for the IC50 in the test on HCT116 MTAP null cells and in the test with HCT116 WT cells were 414 nM and 11800 nM, respectively.

Take `Cn1ncc2c(N)nc3ccc(C(=O)N(C4CC4)[C@@H]4COCc5nc(C(F)(F)F)ccc54)cc3c21` [Example 503, 4-amino-N-cyclopropyl-1-methyl-N-((5S)-2-(trifluoromethyl)-5,8-dihydro-6H-pyrano[3,4-b]pyridin-5-yl)-1H-pyrazolo[4,3-c]quinoline-8-carboxamide]: the values for the concentration for half-maximal inhibition (IC50) with HCT116 MTAP null cells and in the test on HCT116 WT cells were 18 nM and 1260 nM, respectively.

As for `CC(C)CN(C(=O)c1ccc2nc(N)c3cnn(C)c3c2c1)[C@@H]1COCc2nc(C(F)(F)F)ccc21` [Example 504, 4-amino-1-methyl-N-(2-methylpropyl)-N-((5S)-2-(trifluoromethyl)-5,8-dihydro-6H-pyrano[3,4-b]pyridin-5-yl)-1H-pyrazolo[4,3-c]quinoline-8-carboxamide], the IC50 with HCT116 MTAP null cells was found to be 4 nM; with HCT116 WT cells, 144 nM.

As for `CC(C)CN(C(=O)c1ccc2nc(N)c3cnn(C)c3c2c1)[C@H]1COCc2nc(C(F)(F)F)ccc21` [Example 505, 4-amino-1-methyl-N-(2-methylpropyl)-N-((5R)-2-(trifluoromethyl)-5,8-dihydro-6H-pyrano[3,4-b]pyridin-5-yl)-1H-pyrazolo[4,3-c]quinoline-8-carboxamide], the half-inhibitory concentration (IC50) in the test with HCT116 MTAP null cells was found to be 244 nM; in the test with HCT116 WT cells, 12100 nM.

With `CN(C(=O)c1cc2c(cc1F)nc(N)c1cnn(C)c12)[C@@H]1COCc2cc(C(F)(F)F)ccc21` [Example 506, 4-amino-7-fluoro-N,1-dimethyl-N-((4S)-7-(trifluoromethyl)-3,4-dihydro-1H-2-benzopyran-4-yl)-1H-pyrazolo[4,3-c]quinoline-8-carboxamide], the IC50 with HCT116 MTAP null cells came to 4 nM; in the test with HCT116 WT cells, 34 nM.

Take `CN(C(=O)c1cc2c(cc1F)nc(N)c1cnn(C)c12)[C@@H]1COCc2nc(C(F)(F)F)ccc21` [Example 507, 4-amino-7-fluoro-N,1-dimethyl-N-((5S)-2-(trifluoromethyl)-5,8-dihydro-6H-pyrano[3,4-b]pyridin-5-yl)-1H-pyrazolo[4,3-c]quinoline-8-carboxamide]: the figures for the IC50 in the test on HCT116 MTAP null cells and with HCT116 WT cells were 8 nM and 162 nM, respectively.

Turning to `CCN(C(=O)c1cc2c(cc1F)nc(N)c1cnn(C)c12)[C@@H]1COCc2nc(C(F)(F)F)ccc21` [Example 508, 4-amino-N-ethyl-7-fluoro-1-methyl-N-((5S)-2-(trifluoromethyl)-5,8-dihydro-6H-pyrano[3,4-b]pyridin-5-yl)-1H-pyrazolo[4,3-c]quinoline-8-carboxamide], the figures for the IC50 with HCT116 MTAP null cells and in the test on HCT116 WT cells were 5 nM and 43 nM, respectively.

`CN(C(=O)c1ccc2nc(N)c3c(cnn3C)c2c1)[C@@H]1COCc2cc(C#N)ccc21` [Example 509, 4-amino-N-((4S)-7-cyano-3,4-dihydro-1H-2-benzopyran-4-yl)-N,3-dimethyl-3H-pyrazolo[3,4-c]quinoline-8-carboxamide]: the IC50 in the test with HCT116 MTAP null cells is 107 nM; with HCT116 WT cells it was 8110 nM.

`CN(C(=O)c1ccc2nc(N)c3c(cnn3C)c2c1)[C@@H]1COCc2cc(C(F)(F)F)ccc21` [Example 510, 4-amino-N,3-dimethyl-N-((4S)-7-(trifluoromethyl)-3,4-dihydro-1H-2-benzopyran-4-yl)-3H-pyrazolo[3,4-c]quinoline-8-carboxamide]: the IC50 in the test on HCT116 MTAP null cells stood at 48 nM; in the test with HCT116 WT cells, 4590 nM.

On to `CN(C(=O)c1ccc2nc(N)c3c(cnn3C)c2c1)[C@@H]1COCc2cc(C(F)(F)F)ncc21` [Example 511, 4-amino-N,3-dimethyl-N-((4S)-7-(trifluoromethyl)-3,4-dihydro-1H-pyrano[4,3-c]pyridin-4-yl)-3H-pyrazolo[3,4-c]quinoline-8-carboxamide], for which the IC50 was 374 nM in the test with HCT116 MTAP null cells and 17400 nM with HCT116 WT cells.

As to `CN(C(=O)c1ccc2nc(N)c3c(cnn3C)c2c1)[C@@H]1COCc2nc(C(F)(F)F)ccc21` [Example 512, 4-amino-N,3-dimethyl-N-((5S)-2-(trifluoromethyl)-5,8-dihydro-6H-pyrano[3,4-b]pyridin-5-yl)-3H-pyrazolo[3,4-c]quinoline-8-carboxamide], the IC50 stood at 123 nM in the test on HCT116 MTAP null cells and 11100 nM in the test on HCT116 WT cells.

Regarding `COc1ccc2c(n1)COC[C@H]2N(C)C(=O)c1cc2c(cc1F)nc(N)c1c2cnn1C` [Example 513, 4-amino-7-fluoro-N-((5S)-2-methoxy-5,8-dihydro-6H-pyrano[3,4-b]pyridin-5-yl)-N,3-dimethyl-3H-pyrazolo[3,4-c]quinoline-8-carboxamide], the values for the IC50 in the test with HCT116 MTAP null cells and with HCT116 WT cells were 168 nM and 10200 nM, respectively.

Consider `CN(C(=O)c1cc2c(cc1F)nc(N)c1c2cnn1C)[C@@H]1COCc2cc(C(F)(F)F)ccc21` [Example 514, 4-amino-7-fluoro-N,3-dimethyl-N-((4S)-7-(trifluoromethyl)-3,4-dihydro-1H-2-benzopyran-4-yl)-3H-pyrazolo[3,4-c]quinoline-8-carboxamide], for which the figures for the IC50 in the test with HCT116 MTAP null cells and in the test on HCT116 WT cells were 68 nM and 1520 nM, respectively.

As to `CN(C(=O)c1cc2c(cc1F)nc(N)c1c2cnn1C)[C@@H]1COCc2nc(C(F)(F)F)ccc21` [Example 515, 4-amino-7-fluoro-N,3-dimethyl-N-((5S)-2-(trifluoromethyl)-5,8-dihydro-6H-pyrano[3,4-b]pyridin-5-yl)-3H-pyrazolo[3,4-c]quinoline-8-carboxamide], the IC50 in the test with HCT116 MTAP null cells was 37 nM; in the test with HCT116 WT cells it was 3650 nM.

Consider `Cn1ncc2c3cc(C(=O)N(C4CC4)[C@@H]4COCc5nc(C(F)(F)F)ccc54)c(F)cc3nc(N)c21` [Example 516, 4-amino-N-cyclopropyl-7-fluoro-3-methyl-N-((5S)-2-(trifluoromethyl)-5,8-dihydro-6H-pyrano[3,4-b]pyridin-5-yl)-3H-pyrazolo[3,4-c]quinoline-8-carboxamide], for which the concentration for half-maximal inhibition (IC50) was 105 nM in the test with HCT116 MTAP null cells and 6520 nM in the test on HCT116 WT cells.

(Values after patent US20240124442A1, “TRICYCLIC-AMIDO-BICYCLIC PRMT5 INHIBITORS” (AMGEN INC., priority 2021, published 2024).)
